From PubChem BioAssay AID330 (DTP/NCI, 2004) come the findings set out here.

Several values for one entry are separate records, joined by “and”; a condition that tells them apart may be missing. Identical values can stand only once. Toxic doses and inconclusive results are not listed.

This test deals with P388 leukemia ip, CD2F1 mice, survival T/C. In words: NCI In Vivo Anticancer Drug Screen. Data for tumor model P388 Leukemia (intraperitoneal) in CD2F1 (CDF1) mice. The following applies: endpoint: median survival time, higher = longer survival. The procedure, abridged: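 Mice carrying the transplanted tumor received test compound or vehicle. Survival was recorded in each group, and the value is the treated-group measurement divided by that of the vehicle-treated control group.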

The mark [1] stands for this setting: dose: 60.0 mg/kg/injection, schedule: Q01DX005 (ip), vehicle: saline.
The mark [2] stands for this setting: dose: 120.0 mg/kg/injection, schedule: Q01DX005 (ip), vehicle: saline.
Where [3] appears, read: dose: 240.0 mg/kg/injection, schedule: Q01DX005 (ip), vehicle: saline.
Where [4] appears, read: dose: 50.0 mg/kg/injection, schedule: Q01DX009 (ip), vehicle: Klucel (hydroxypropylcellulose) (HPC).
The mark [5] stands for this setting: dose: 100.0 mg/kg/injection, schedule: Q01DX009 (ip), vehicle: Klucel (hydroxypropylcellulose) (HPC).
The mark [6] stands for this setting: dose: 200.0 mg/kg/injection, schedule: Q01DX009 (ip), vehicle: Klucel (hydroxypropylcellulose) (HPC).
Setting [7] is: dose: 400.0 mg/kg/injection, schedule: Q01DX009 (ip), vehicle: Klucel (hydroxypropylcellulose) (HPC).
Setting [8] is: dose: 60.0 mg/kg/injection, schedule: Q01DX005 (ip), vehicle: saline with Tween-80.
Where [9] appears, read: dose: 120.0 mg/kg/injection, schedule: Q01DX005 (ip), vehicle: saline with Tween-80.
The mark [10] stands for this setting: dose: 240.0 mg/kg/injection, schedule: Q01DX005 (ip), vehicle: saline with Tween-80.

In the case of `C=C(CC(N)=O)C(N)C(=O)O` (stereo unspecified), the T/C under setting [1] was 100 % of control, the T/C under setting [2] was 100 % of control and the T/C under setting [3] was 100 % of control.
As for `Cc1cc(Cl)ccc1OCC(C)OC(=O)NC(C)C` (stereo unspecified), the T/C under setting [4] was 106 % of control, the T/C under setting [5] is 97 % of control and the T/C under setting [6] is 101 % of control.
Consider `OCC(O)C(O)Cc1cnc(C(O)C(O)C(O)CO)cn1` (stereo unspecified), for which the T/C (dose: 50.0 mg/kg/injection, schedule: Q01DX009 (ip), vehicle: other) is 93 % of control; the T/C (dose: 100.0 mg/kg/injection, schedule: Q01DX009 (ip), vehicle: other) is 96 % of control; the T/C (dose: 200.0 mg/kg/injection, schedule: Q01DX009 (ip), vehicle: other) is 102 % of control; the T/C (dose: 400.0 mg/kg/injection, schedule: Q01DX009 (ip), vehicle: other) is 108 % of control; the T/C (dose: 800.0 mg/kg/injection, schedule: Q01DX009 (ip), vehicle: other) is 102 % of control.
For the compound `COc1ccccc1-c1cn(O)c2nc(=N)nc(N)c-2n1`, the T/C was 91 % of control (dose: 50.0 mg/kg/injection, schedule: Q04DX003 (ip), vehicle: saline with Tween-80); 89 % of control (dose: 100.0 mg/kg/injection, schedule: Q04DX003 (ip), vehicle: saline with Tween-80); 99 % of control (dose: 200.0 mg/kg/injection, schedule: Q04DX003 (ip), vehicle: saline with Tween-80); 107 % of control (dose: 400.0 mg/kg/injection, schedule: Q04DX003 (ip), vehicle: saline with Tween-80).
As for `O=C(Nc1ccccc1-c1ccccc1)C(Cl)Cl`, the T/C is, setting by setting: under setting [4], 101 % of control; under setting [5], 104 % of control; under setting [6], 87 % of control; under setting [7], 100 % of control.
Turning to `COc1cc(OC)c(C(=O)CCN(C)C)cc1OC`, the T/C was 109 % of control under setting [1], 116 % of control under setting [2] and 114 % of control under setting [3].
Turning to `COc1ccc2c3csc4ccccc4c-3nc2c1`, the T/C (dose: 16.0 mg/kg/injection, schedule: Q01DX009 (ip), vehicle: saline) is 107 % of control; the T/C (dose: 25.0 mg/kg/injection, schedule: Q01DX009 (ip), vehicle: saline) is 115 % of control; the T/C (dose: 35.0 mg/kg/injection, schedule: Q01DX009 (ip), vehicle: saline) was 95 % of control.
Take `O=C(CBr)c1cccc(OC(=O)c2ccccc2)c1`: the T/C (dose: 6.25 mg/kg/injection, schedule: Q01DX009 (ip), vehicle: saline with Tween-80) is 108 % of control and the T/C (dose: 12.5 mg/kg/injection, schedule: Q01DX009 (ip), vehicle: saline with Tween-80) is 108 % of control.
For the compound `CCOC(=O)C(NC(C)=O)(C(=O)OCC)C(C)C(O)c1ccc(OC)c(OC)c1O` (stereo unspecified), the T/C under setting [4] is 108 % of control, the T/C under setting [5] was 103 % of control, the T/C under setting [6] was 109 % of control and the T/C under setting [7] is 93 % of control.
For the compound `CSC1C(=O)N2CCCc3cccc1c32` (stereo unspecified), the T/C is 105 % of control under setting [8], 96 % of control under setting [9] and 96 % of control under setting [10].
For `Cc1nc2c(Cl)cccc2c2ccccc12`, the T/C is, setting by setting: (dose: 50.0 mg/kg/injection, schedule: Q01DX005 (ip), vehicle: Klucel (hydroxypropylcellulose) (HPC)) 88 % of control; (dose: 100.0 mg/kg/injection, schedule: Q01DX005 (ip), vehicle: Klucel (hydroxypropylcellulose) (HPC)) 92 % of control; (dose: 200.0 mg/kg/injection, schedule: Q01DX005 (ip), vehicle: Klucel (hydroxypropylcellulose) (HPC)) 88 % of control.
With `N#CC(C#N)=NNc1c(Br)cc(Cl)cc1Br`, the T/C reads like this: (dose: 1.56 mg/kg/injection, schedule: Q01DX009 (ip), vehicle: Klucel (hydroxypropylcellulose) (HPC)) 104 % of control; (dose: 3.12 mg/kg/injection, schedule: Q01DX009 (ip), vehicle: Klucel (hydroxypropylcellulose) (HPC)) 105 % of control; (dose: 6.25 mg/kg/injection, schedule: Q01DX009 (ip), vehicle: Klucel (hydroxypropylcellulose) (HPC)) 116 % of control and 97 % of control.
Turning to `CCOC(=O)N(CCCl)C(=O)C(C)C`, the T/C (dose: 100.0 mg/kg/injection, schedule: Q01DX001 (ip), vehicle: saline with Tween-80) was 104 % of control; the T/C (dose: 200.0 mg/kg/injection, schedule: Q01DX001 (ip), vehicle: saline with Tween-80) is 100 % of control; the T/C (dose: 400.0 mg/kg/injection, schedule: Q01DX001 (ip), vehicle: saline with Tween-80) was 104 % of control.
In the case of `O/N=C(/Cc1nc2cc(Cl)c(Cl)cc2nc1C/C(=N/O)c1cccc2ccccc12)c1cccc2ccccc12`, the T/C is 91 % of control under setting [8], 99 % of control under setting [9] and 94 % of control under setting [10].
Turning to `CN1CCN(S(=O)(=O)c2cnccc2N2CCN(CCO)CC2)CC1`, the T/C is 108 % of control (dose: 50.0 mg/kg/injection, schedule: Q01DX009 (ip), vehicle: saline); 97 % of control (dose: 100.0 mg/kg/injection, schedule: Q01DX009 (ip), vehicle: saline); 97 % of control (dose: 200.0 mg/kg/injection, schedule: Q01DX009 (ip), vehicle: saline).
Turning to `COc1cccc2c1C(=O)c1c(O)c3c(c(O)c1C2=O)C[C@@](O)(C(C)=O)C[C@@H]3OC1CC(N(CCO)Cc2ccccc2)C(O)C(C)O1` (stereo partly specified), the T/C was 105 % of control (dose: 4.0 mg/kg/injection, schedule: Q04DX003 (ip), vehicle: water); 113 % of control (dose: 8.0 mg/kg/injection, schedule: Q04DX003 (ip), vehicle: water); 114 % of control (dose: 12.5 mg/kg/injection, schedule: Q04DX003 (ip), vehicle: water); 155 % of control (dose: 32.0 mg/kg/injection, schedule: Q04DX003 (ip), vehicle: water); 172 % of control (dose: 50.0 mg/kg/injection, schedule: Q04DX003 (ip), vehicle: water); 179 % of control (dose: 64.0 mg/kg/injection, schedule: Q04DX003 (ip), vehicle: water). The T/C runs as follows: (dose: 100.0 mg/kg/injection, schedule: Q04DX003 (ip), vehicle: water) 223 % of control; (dose: 128.0 mg/kg/injection, schedule: Q04DX003 (ip), vehicle: water) 240 % of control; (dose: 200.0 mg/kg/injection, schedule: Q04DX003 (ip), vehicle: water) 124 % of control.
For `CC(=O)OC1CC2(OC(C)=O)CC(OC2=O)C1OC(C)=O` (stereo unspecified), the T/C reads like this: (dose: 100.0 mg/kg/injection, schedule: Q01DX001 (ip), vehicle: Klucel (hydroxypropylcellulose) (HPC)) 100 % of control; (dose: 100.0 mg/kg/injection, schedule: Q04DX002 (ip), vehicle: Klucel (hydroxypropylcellulose) (HPC)) 100 % of control; (dose: 200.0 mg/kg/injection, schedule: Q01DX001 (ip), vehicle: Klucel (hydroxypropylcellulose) (HPC)) 100 % of control; (dose: 200.0 mg/kg/injection, schedule: Q04DX002 (ip), vehicle: Klucel (hydroxypropylcellulose) (HPC)) 100 % of control; (dose: 400.0 mg/kg/injection, schedule: Q01DX001 (ip), vehicle: Klucel (hydroxypropylcellulose) (HPC)) 99 % of control; (dose: 400.0 mg/kg/injection, schedule: Q04DX002 (ip), vehicle: Klucel (hydroxypropylcellulose) (HPC)) 98 % of control.
As for `Nc1c(C(=O)Nc2ccc(NC(=O)c3ccc4c(c3N)C(=O)c3ccccc3C4=O)c3c2C(=O)c2ccccc2C3=O)ccc2c1C(=O)c1ccccc1C2=O`, the T/C reads like this: (dose: 50.0 mg/kg/injection, schedule: Q01DX009 (ip), vehicle: suspension in saline) 103 % of control; (dose: 100.0 mg/kg/injection, schedule: Q01DX009 (ip), vehicle: suspension in saline) 106 % of control; (dose: 200.0 mg/kg/injection, schedule: Q01DX009 (ip), vehicle: suspension in saline) 103 % of control.
For the compound `CC(=O)O[C@@H]1[C@@H](O)[C@H]2O[C@@H]3C=C(C)CC[C@]3(CO)[C@]1(C)[C@@]21CO1`, the T/C is, setting by setting: (dose: 1.25 mg/kg/injection, schedule: Q01DX009 (ip), vehicle: saline with Tween-80) 110 % of control and 120 % of control; (dose: 2.5 mg/kg/injection, schedule: Q01DX009 (ip), vehicle: saline with Tween-80) 118 % of control and 121 % of control; (dose: 5.0 mg/kg/injection, schedule: Q01DX009 (ip), vehicle: saline with Tween-80) 120 % of control; (dose: 20.0 mg/kg/injection, schedule: Q01DX009 (ip), vehicle: saline with Tween-80) 93 % of control.
